Measured values reported in article PMC11182572, “Mining Bovine Milk Proteins for DPP-4 Inhibitory Peptides Using Machine Learning and Virtual Proteolysis” (Research, 2024).
Like-named read-outs stand apart in the source and are kept apart here. No end group written: not given here.

Experiments:
[1] = target: T1, DPP-4 (Homo sapiens, UniProt P27487); test: DPP-4 inhibitory activity (Gly-Pro-p-nitroanilide substrate); assay type: biochemical; conditions: for IC50: 25 μl sample + 25 μl Gly-Pro-p-nitroanilide (3.2 mM), preincubated 37 °C 10 min, 50 μl DPP-4 (0.02 U/ml), 60 min, 100 mM tris buffer (pH 7.6), absorbance at 405 nm
T1 construct: purchased Sigma-Aldrich Co., St. Louis, MO, USA
Protocol: Determination of DPP-4 inhibitory activity
The DPP-4 inhibitory activity of the synthesized peptides was determined as previously described, with slight modifications. Briefly, 25 μl of the sample and 25 μl of Gly-Pro-p-nitroanilide (3.2 mM) were preincubated at 37 °C for 10 min before 50 μl of DPP-4 (0.02 U/ml) was added to the mixture (Sigma-Aldrich Co., St. Louis, MO, USA). After 60 min, the reaction was halted by adding 100 μl of 1 M sodium acetate solution. The absorbance at 405 nm was measured using a microplate reader (Thermo Fisher Scientific, Waltham, MA, USA). DPP-4 inhibition (DI) was calculated as follows: DI%=1−Asample−Asample blank/Apositive−Anegative×100% (5) where A(sample) represents the optical density of DPP-4 in the presence of both the substrate and peptide. A(sample blank) represents the optical density of the 100 mM tris buffer (pH 7.6). A(positive) represents the optical density of the enzyme and substrate in the absence of an inhibitor. A(negative) represents the optical density of the enzyme in the absence of substrate and inhibitor.

[2] = target: T1, DPP-4; conditions: methodologies differ among studies; cited from earlier work

T1 sequence (P27487 whole entry, species assumed): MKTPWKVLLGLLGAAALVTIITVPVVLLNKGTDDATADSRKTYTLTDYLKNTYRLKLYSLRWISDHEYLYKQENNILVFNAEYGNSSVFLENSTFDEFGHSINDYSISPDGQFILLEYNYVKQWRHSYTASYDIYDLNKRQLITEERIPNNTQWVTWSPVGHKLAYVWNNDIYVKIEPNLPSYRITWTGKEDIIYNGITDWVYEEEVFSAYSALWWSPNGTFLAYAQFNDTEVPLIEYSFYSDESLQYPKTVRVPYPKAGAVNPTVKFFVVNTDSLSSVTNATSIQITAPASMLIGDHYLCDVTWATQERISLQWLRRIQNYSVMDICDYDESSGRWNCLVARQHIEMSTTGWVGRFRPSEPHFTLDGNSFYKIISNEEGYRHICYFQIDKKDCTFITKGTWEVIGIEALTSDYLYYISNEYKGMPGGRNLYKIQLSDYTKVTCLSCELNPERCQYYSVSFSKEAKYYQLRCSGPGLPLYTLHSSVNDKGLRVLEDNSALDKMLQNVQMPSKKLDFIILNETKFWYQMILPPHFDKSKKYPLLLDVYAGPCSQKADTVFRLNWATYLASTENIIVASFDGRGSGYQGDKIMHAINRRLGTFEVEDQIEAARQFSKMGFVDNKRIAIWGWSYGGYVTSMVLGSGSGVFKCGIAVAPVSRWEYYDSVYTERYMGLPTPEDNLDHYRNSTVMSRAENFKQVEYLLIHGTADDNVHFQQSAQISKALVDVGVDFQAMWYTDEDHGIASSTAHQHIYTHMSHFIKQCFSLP

FVAPFPEV [peptide from α-S1-casein, pepsin (pH 1.3), pepsin (pH > 2); synthesized]
DPP-4 inhibitory effect (in words) ([1]; in vitro): poor inhibitory effect

TPEVDDEALEK [peptide from previous study [6]]
IC50 [2]: 320 µM

HPHPHL [HPHPHL]
IC50 [1]: 1610 µM

GPVRGPF [GPVRGPF]
IC50 [1]: 645 µM
